For this experiment, the system named is T1, monoamine oxidase (MAO).
T1 construct: gene MAOA
The experiment in a line: MAO inhibition assay (procedure by reference). Particulars: isoenzyme and enzyme source not told.

The text below walks through data of PMC7667569, “Chemical Composition and Biological Activities of Endophytic Fungus Talaromyces Wortmannii LGT-4, Cultured in CYM Medium” (Iranian Journal of Pharmaceutical Research : IJPR, 2020).

The structures appear in SMILES notation. Converted amounts (≈) assume the structure as drawn.

In the case of `O=C1OCc2c(O)cccc21` [compound 1, 4-hydroxyphthalide], the IC50 (commonly the point on the concentration scale where inhibition reaches its midpoint) was determined as 35 µg/mL (≈ 233 µM).

Consider `C[C@@H]1NC(=O)[C@@H]2CCCN2C1=O` [compound 5, Cis-cyclo(L-Ala-L-Pro)], for which the half-maximal inhibitory concentration (IC50) came to 28 µg/mL (≈ 166 µM).
